Key:
[1] = tested on: tonic hind limb extensor seizure; test: Supramaximal electroshock seizure (MES) test in the mouse; format: in vivo
Source text: The supramaximal electroshock seizure ([…]) test is widely utilized preclinically to evaluate anti-convulsant properties of molecules and standard anti-epileptic drugs (Loscher et al., 1991).
The MES test is a very stringent model in which mice receive a predetermined high-level electrical stimulus of sufficient intensity to reliably produce tonic hindlimb extensor seizures in 100% of control animals. As such the MES test is a rigorous evaluation of anticonvulsant activity (Swinyard, 1985).
Animals were dosed i.p. according to treatment group.
The vehicle (10 ml/kg i.p. 60 min pre-treatment time) was 1:1:18 vehicle 5% ethanol, 5% kolliphor EL, 90% saline.
The test compound, 6-OH CBDV was administered at doses of 3, 10, 30, and 100 mg/kg given at 10 ml/kg i.p. 60 min pre-treatment time.
The positive control valproate was used at 250 mg/kg (10 ml/kg i.p. 30 min pre-treatment time).
Induction of seizure is measured as an all-or-nothing effect scored as either present (+) or absent (0) for each animal.
Data was collected by an observer unaware of the treatment for each animal and was expressed as the number of +'s or 0's for each treatment group.
The percentage inhibition of relevant vehicle treated group (the protection relative to vehicle treated controls) was then generated.
Significant differences between individual treatment groups and vehicle-treated groups were assessed using 2-tailed Fisher's Exact Probability test (p<0.05 considered significant).

[2] = tested on: tonic hind limb extensor convulsions; test: Maximal electroshock seizure threshold (MEST) test in the mouse; conditions: for % change from vehicle (CC50) / CC50 ± SEM: mouse
Method: The efficacy of 6-OH CBDV was tested in a mouse model of generalised seizure, the maximal electroshock seizure threshold (MEST) test.
The maximal electroshock seizure threshold (MEST) test is widely utilized preclinically to evaluate pro- or anti-convulsant properties of test compounds (Loscher et al., 1991).
In the MEST test the ability of a drug to alter the seizure threshold current required to induce hind limb tonic extensor convulsions is measured according to an “up and down” method of shock titration (Kimball et al., 1957). An increase in seizure threshold is indicative of anti-convulsant effect.
The ability of a test compound to alter the stimulus intensity, expressed as current (mA), required to induce the presence of tonic hind limb extensor convulsions, is assessed in the MEST.
Naïve mice were acclimatised to the procedure room in their home cages for up to 7 days, with food and water available ad libitum.
All animals were weighed at the beginning of the study and randomly assigned to treatment groups based on a mean distribution of body weight across groups.
The first animal within a treatment group was given a shock at the expected or estimated CC50 current. For subsequent animals, the current was lowered or raised depending on the convulsions outcome from the preceding animal.
Data generated from each treatment group were used to calculate the CC50±SEM values for the treatment group.
Vehicle: (5% ethanol, 5% solutol, 90% Saline) was prepared as follows: 2 mL of ethanol, 2 mL of solutol were warmed to 60° C., in 36 mL of saline (1:1:18).
The test compound, alpha 6-OH CBDV was prepared according to the method described in Example 1. 6-OH CBDV was administered at 3, 10 and 30 mg/kg (i.p.) in a 1:1:18 ethanol:soluto:0.9% saline formulation.
6-OH CBDV effects were also calculated as percentage change in CC50 from the vehicle control group.
Significant difference between drug-treated animals and controls were assessed according to Litchfield and Wilcoxon (1949).

[3] = 3 mg/kg i.p., 15 min pre-treatment
[4] = 10 mg/kg i.p., 15 min pre-treatment
[5] = 30 mg/kg i.p., 30 min pre-treatment
[6] = 250 mg/kg i.p., 30 min pre-treatment

Compound: C=C(C)[C@@H]1CC(O)C(C)=C[C@H]1c1c(O)cc(CCC)cc1O (stereo partly drawn) [6-OH CBDV, Alpha 6-hydroxy cannabidivarin]
- % change from vehicle ([1]; 3 mg/kg i.p., 60 min pre-treatment): 20%
- % change from vehicle ([1]; 10 mg/kg i.p., 60 min pre-treatment): 20%
- % change from vehicle ([1]; 30 mg/kg i.p., 60 min pre-treatment): 100%
- Induction of seizure (present/absent) ([1]; 30 mg/kg i.p., 60 minutes before the test): enabled all mice to withstand seizures
- % change from vehicle ([1]; 100 mg/kg i.p., 60 min pre-treatment): 100%
- Induction of seizure (present/absent) ([1]; 100 mg/kg i.p., 60 minutes before the test): enabled all mice to withstand seizures
- % change from vehicle (CC50) [2, 3]: 111%
- CC50 ± SEM [2, 3]: 54.2 ± 1.4 mA
- % change from vehicle (CC50) [2, 4]: 147%
- CC50 ± SEM [2, 4]: 63.5 ± 3.4 mA
- % change from vehicle (CC50) [2, 5]: 260%
- CC50 ± SEM [2, 5]: 92.5 ± 0.4 mA
- Effect on MEST (seizure threshold) across doses ([2]; mouse, 3, 10 and 30 mg/kg i.p.): dose-related increase in MEST

Compound: CN1C(=O)CN=C(c2ccccc2)c2cc(Cl)ccc21 [Diazepam, diazepam, reference compound]
- % change from vehicle (CC50) ([2]; 2.5 mg/kg i.p., 30 min pre-treatment): 124%

Compound: CCCC(CCC)C(=O)[O-].[Na+] [Valproate, sodium valproate, reference compound]
- % change from vehicle [1, 6]: 100%
- Induction of seizure (present/absent) ([1]; 250 mg/kg i.p., 30 minutes before the test): all animals were scored as not having a seizure
- % change from vehicle (CC50) [2, 6]: 997%

— US11590087B2, “Cannabidiol-type cannabinoid compound” (GW Research Limited, priority 2019, dated 2023)
